Experiment: Sensory evaluation of orange juice containing the agent
Details: ten panels
Procedure: Sensory evaluation of each drink was carried out by ten panels. […] The piercing aroma characteristic to aldehydes is a characteristic aroma common to every aldehyde and refers to an irritant off-smell giving an image of deteriorated oils and fats, soap, metals, Houttuynia cordata, etc. The judgment of smell was performed by comparing the effects at different concentrations of the acid taste and/or acid smell-reducing agent, and a concentration giving the highest acid taste/acid smell quality was selected.
To commercially available 100% orange juice was added (Z,Z)-4,7-tridecadienal as the acid taste and/or acid smell-reducing agent of the present invention in concentrations shown in the following Table 12 to give orange juice containing the agent, followed by sensory evaluation as in Example 1.

CCCCC/C=C\C/C=C\CCC=O [(Z,Z)-4,7-tridecadienal]
A: number of panels, acid taste/acid smell extreme and cause irritation (0.005 ppt): 10
B: number of panels, acid taste/acid smell slightly strong and slightly cause irritation (0.005 ppt): 0
C: number of panels, acid taste/acid smell slightly unpleasant (0.005 ppt): 0
Flavor judgment: number of panels who judged acid taste/acid smell quality the highest (0.005 ppt): 0
N: number of panels, irritation of acid reduced to give a mild acid taste (0.005 ppt): 0
X: number of panels, acid taste reduced but piercing odor characteristic to aldehydes unpleasant (0.005 ppt): 0
A: number of panels, acid taste/acid smell extreme and cause irritation (0.02 ppt): 9
B: number of panels, acid taste/acid smell slightly strong and slightly cause irritation (0.02 ppt): 1
C: number of panels, acid taste/acid smell slightly unpleasant (0.02 ppt): 0
Flavor judgment: number of panels who judged acid taste/acid smell quality the highest (0.02 ppt): 0
N: number of panels, irritation of acid reduced to give a mild acid taste (0.02 ppt): 0
X: number of panels, acid taste reduced but piercing odor characteristic to aldehydes unpleasant (0.02 ppt): 0
A: number of panels, acid taste/acid smell extreme and cause irritation (0.1 ppt): 8
B: number of panels, acid taste/acid smell slightly strong and slightly cause irritation (0.1 ppt): 1
C: number of panels, acid taste/acid smell slightly unpleasant (0.1 ppt): 1
Flavor judgment: number of panels who judged acid taste/acid smell quality the highest (0.1 ppt): 0
N: number of panels, irritation of acid reduced to give a mild acid taste (0.1 ppt): 0
X: number of panels, acid taste reduced but piercing odor characteristic to aldehydes unpleasant (0.1 ppt): 0
A: number of panels, acid taste/acid smell extreme and cause irritation (0.2 ppt): 6
B: number of panels, acid taste/acid smell slightly strong and slightly cause irritation (0.2 ppt): 2
C: number of panels, acid taste/acid smell slightly unpleasant (0.2 ppt): 2
Flavor judgment: number of panels who judged acid taste/acid smell quality the highest (0.2 ppt): 0
N: number of panels, irritation of acid reduced to give a mild acid taste (0.2 ppt): 0
X: number of panels, acid taste reduced but piercing odor characteristic to aldehydes unpleasant (0.2 ppt): 0
A: number of panels, acid taste/acid smell extreme and cause irritation (0.5 ppt): 0
B: number of panels, acid taste/acid smell slightly strong and slightly cause irritation (0.5 ppt): 2
C: number of panels, acid taste/acid smell slightly unpleasant (0.5 ppt): 2
Flavor judgment: number of panels who judged acid taste/acid smell quality the highest (0.5 ppt): 1
N: number of panels, irritation of acid reduced to give a mild acid taste (0.5 ppt): 6
X: number of panels, acid taste reduced but piercing odor characteristic to aldehydes unpleasant (0.5 ppt): 0
A: number of panels, acid taste/acid smell extreme and cause irritation (1 ppb): 0
B: number of panels, acid taste/acid smell slightly strong and slightly cause irritation (1 ppb): 0
C: number of panels, acid taste/acid smell slightly unpleasant (1 ppb): 2
Flavor judgment: number of panels who judged acid taste/acid smell quality the highest (1 ppb): 0
N: number of panels, irritation of acid reduced to give a mild acid taste (1 ppb): 4
X: number of panels, acid taste reduced but piercing odor characteristic to aldehydes unpleasant (1 ppb): 4
A: number of panels, acid taste/acid smell extreme and cause irritation (1 ppt): 0
B: number of panels, acid taste/acid smell slightly strong and slightly cause irritation (1 ppt): 2
C: number of panels, acid taste/acid smell slightly unpleasant (1 ppt): 2
Flavor judgment: number of panels who judged acid taste/acid smell quality the highest (1 ppt): 1
N: number of panels, irritation of acid reduced to give a mild acid taste (1 ppt): 6
X: number of panels, acid taste reduced but piercing odor characteristic to aldehydes unpleasant (1 ppt): 0
A: number of panels, acid taste/acid smell extreme and cause irritation (5 ppt): 0
B: number of panels, acid taste/acid smell slightly strong and slightly cause irritation (5 ppt): 1
C: number of panels, acid taste/acid smell slightly unpleasant (5 ppt): 2
Flavor judgment: number of panels who judged acid taste/acid smell quality the highest (5 ppt): 4
N: number of panels, irritation of acid reduced to give a mild acid taste (5 ppt): 7
X: number of panels, acid taste reduced but piercing odor characteristic to aldehydes unpleasant (5 ppt): 0
A: number of panels, acid taste/acid smell extreme and cause irritation (10 ppb): 0
B: number of panels, acid taste/acid smell slightly strong and slightly cause irritation (10 ppb): 0
C: number of panels, acid taste/acid smell slightly unpleasant (10 ppb): 1
Flavor judgment: number of panels who judged acid taste/acid smell quality the highest (10 ppb): 0
N: number of panels, irritation of acid reduced to give a mild acid taste (10 ppb): 3
X: number of panels, acid taste reduced but piercing odor characteristic to aldehydes unpleasant (10 ppb): 6
A: number of panels, acid taste/acid smell extreme and cause irritation (20 ppt): 0
B: number of panels, acid taste/acid smell slightly strong and slightly cause irritation (20 ppt): 0
C: number of panels, acid taste/acid smell slightly unpleasant (20 ppt): 3
Flavor judgment: number of panels who judged acid taste/acid smell quality the highest (20 ppt): 4
N: number of panels, irritation of acid reduced to give a mild acid taste (20 ppt): 7
X: number of panels, acid taste reduced but piercing odor characteristic to aldehydes unpleasant (20 ppt): 0
A: number of panels, acid taste/acid smell extreme and cause irritation (50 ppb): 0
B: number of panels, acid taste/acid smell slightly strong and slightly cause irritation (50 ppb): 0
C: number of panels, acid taste/acid smell slightly unpleasant (50 ppb): 1
Flavor judgment: number of panels who judged acid taste/acid smell quality the highest (50 ppb): 0
N: number of panels, irritation of acid reduced to give a mild acid taste (50 ppb): 2
X: number of panels, acid taste reduced but piercing odor characteristic to aldehydes unpleasant (50 ppb): 7
A: number of panels, acid taste/acid smell extreme and cause irritation (100 ppt): 0
B: number of panels, acid taste/acid smell slightly strong and slightly cause irritation (100 ppt): 0
C: number of panels, acid taste/acid smell slightly unpleasant (100 ppt): 4
Flavor judgment: number of panels who judged acid taste/acid smell quality the highest (100 ppt): 0
N: number of panels, irritation of acid reduced to give a mild acid taste (100 ppt): 4
X: number of panels, acid taste reduced but piercing odor characteristic to aldehydes unpleasant (100 ppt): 2
A: number of panels, acid taste/acid smell extreme and cause irritation (500 ppt): 0
B: number of panels, acid taste/acid smell slightly strong and slightly cause irritation (500 ppt): 0
C: number of panels, acid taste/acid smell slightly unpleasant (500 ppt): 3
Flavor judgment: number of panels who judged acid taste/acid smell quality the highest (500 ppt): 0
N: number of panels, irritation of acid reduced to give a mild acid taste (500 ppt): 4
X: number of panels, acid taste reduced but piercing odor characteristic to aldehydes unpleasant (500 ppt): 3
